Experiments:
[1] = system: T1, hybrid protein LAC4-LACA-KpnI; assay: o-nitrophenol release, Lineweaver-Burk; type: biochemical, Kluyveromyces lactis;Aspergillus niger; details: crude extract (30 μg protein); buffer Z with 1.6 mM MgSO4; ONPG 2-12 mM
T1 construct: single-chain fusion: K. lactis LAC4 without its 297 C-terminal residues (fifth domain), replaced by 274 C-terminal residues of A. niger LACA (from pVK1.1) at KpnI site; expressed in K. lactis MW190-9B; crude extract

[2] = system: T1, hybrid protein LAC4-LACA-KpnI; assay: D-galactose release by coupled galactose dehydrogenase / NADH kit at […] nm, Lineweaver-Burk; type: biochemical, Kluyveromyces lactis;Aspergillus niger; details: crude extract (60 μg protein); lactose 5-160 mM

O=[N+]([O-])c1ccccc1O[C@@H]1O[C@H](CO)[C@H](O)[C@H](O)[C@H]1O [ONPG]
Km [1]: 0.8 mM

OC[C@H]1O[C@@H](O[C@H]2[C@H](O)[C@@H](O)C(O)O[C@@H]2CO)[C@H](O)[C@@H](O)[C@H]1O (some centres unmarked) [lactose]
Km [2]: 8.7 mM
